Source: US20060121112A1, “Topiramate pharmaceutical composition” (Elan Corporation, plc, priority 2004, published 2006)
Where a name gives a salt, the structure may show the parent alone. Read-outs that look alike come from different tables or passages of the source. Marks after values point to notes of the source that are not given here.

Experiments:
[1] = cited from earlier work
[2] = cited from earlier work; remark: listed apart in the source
[3] = Pharmacoscintigraphy regional absorption biostudy with Enterion site-specific delivery capsule, topiramate plasma concentrations; type: in vivo, human; conditions: for Relative Bioavailability (%) Based on AUCinf: 200 mg topiramate API, Enterion capsule, healthy volunteers; for Relative Bioavailability (%) Based on AUCinf / Relative Bioavailability (%) Based on AUClast: vs Trt A; for Lambda / tmax / Relative Bioavailability (%) Based on AUClast / AUCinf / Cmax / half-life / AUC(0-inf) / AUC(0-t): 200 mg; for half-life: read-out: t½ (converted)
Procedure: A rational approach to obtain detailed information about how well topiramate is absorbed from the key residence areas of the gastrointestinal tract was conducted using the Enterion® site-specific delivery capsule, which is the subject of U.S. Pat. No. 6,632,216 which is incorporated herein by reference. The Enterion® site-specific delivery capsule is an easy to use non-invasive methodology for assessing regional drug absorption from the gastrointestinal tract. The capsule is 35mm in length and 10-12 mm in diameter and is capable of delivering solutions, suspensions or powders to specific sites. […] The capsules contain a drug chamber with a wide port, and therefore loading of all types of drug formulations into the capsule is relatively straightforward. Capsule activation is confirmed by means of a signal, which is emitted from the capsule when activation occurs and is relayed back to the activation unit.
A pharmacoscintigraphy study of topiramate was conducted at Pharmaceutical Profiles, Nottingham, UK utilizing their Enterion® site-specific delivery capsule technology. This study was designed to obtain detailed information about how well topiramate is absorbed from the key residence areas of the gastrointestinal tract. The examples below are a result of a biostudy that was a randomized, 4-treatment, 4-period study, conducted in 12 healthy volunteers. The test treatments administered using an Enterion® capsule and were as follows: Trt B represents 200 mg topiramate API delivered to the proximal small bowel (PSB), Trt C represents 200 mg topiramate API delivered to the distal small bowel (DSB), Trt D represents 200 mg topiramate API delivered to the colon. The reference treatment administered was Trt A which represents 200 mg topiramate as the commercial immediate release reference formulation, Topamax™. Topiramate plasma concentrations were measured in this study.
Analysis of plasma samples for topiramate was carried out in accordance with Bioanalytical Services Test Method number TM154. The method involves solid phase extraction of topiramate using Oasis HLB extraction cartridges. Topiramate is analysed using LC-MS/MS.
The standard curves for the analytical runs in the study covered the concentration range of 10-1000 ng/mL with a limit of quantitation of 10 ng/mL. All samples were diluted 1:10 prior to analysis.
The following parameters were derived from the plasma concentration data: individual and mean blood drug concentration levels, individual and mean peak levels, Cmax; individual and mean AUClast and AUCinf; individual and mean time to peak concentration, tmax, relative bioavailability of test compared to alternative formulation, Frel (%).

[4] = Trt B, proximal small bowel (PSB)
[5] = Trt B, proximal small bowel (PSB), plasma
[6] = Trt C, distal small bowel (DSB)
[7] = human, plasma, Trt B, proximal small bowel (PSB)
[8] = human, plasma, Trt C, distal small bowel (DSB)
[9] = human, plasma, other: Enterion capsule, delivered to the colon, Trt D, colon, plasma

CC(C)(N)Cc1ccccc1 [Phentermine hydrochloride, 1,1 -Dimethyl-2-phenethylamine hydrochloride]
solubility ([1]; in chloroform): slightly soluble
solubility ([1]; in ether): insoluble
solubility ([1]; in water and lower alcohols): soluble

CC1(C)O[C@@H]2[C@@H](CO[C@@]3(COS(N)(=O)=O)OC(C)(C)O[C@@H]23)O1 [Topiramate, topiramate]
metabolized in the liver ([2]; P-450 microsomal enzyme system): 15%
time to peak blood levels ([2]; following a 400 mg oral dose): about 2 hours
Plasma protein binding ([2]; in vivo): approximately 15%
excreted unchanged in the urine ([2]; in vivo): about 85%
bioavailability ([2]; oral administration): ~100%
Relative Bioavailability (%) Based on AUCinf [3, 4]: 120.88 ± 20.20 %
Lambda [3, 4]: 0.02 ± 0.01˜ h^−1
tmax [3, 4]: 2.08 ± 1.08 h
Relative Bioavailability (%) Based on AUClast [3, 4]: 113.06 ± 19.46 %
AUCinf [3, 5]: 192140.44 ± 33798.87˜ ng/mL · h
Cmax [3, 5]: 5255.66 ± 1870.32 ng/mL
Relative Bioavailability (%) Based on AUCinf [3, 6]: 120.99 ± 25.31$ %
Lambda [3, 6]: 0.03 ± 0.01 h⁻¹
tmax [3, 6]: 3.64 ± 4.20 h
Relative Bioavailability (%) Based on AUClast [3, 6]: 125.69 ± 27.18˜ %
AUCinf ([3]; Trt C, distal small bowel (DSB), plasma): 193203.21 ± 57012.26 ng·h/mL
Relative Bioavailability (%) Based on AUCinf ([3]; Trt D, colon): 111.85 ± 19.41^ %
Lambda ([3]; Trt D, colon): 0.03 ± 0.01* h^−1
tmax ([3]; Trt D, colon): 11.85 ± 7.44 h
Relative Bioavailability (%) Based on AUClast ([3]; Trt D, colon): 107.14 ± 22.73˜ %
AUCinf ([3]; Trt D, colon, plasma): 181462.53 ± 46104.28 ng·h/mL
Cmax ([3]; Trt D, colon, plasma): 3878.07 ± 1267.71 ng/mL
enhanced bioavailability ([3]; administered in the small or large intestine as compared to oral immediate release tablets): approximately 20%
Cmax ([3]; human, plasma, Trt B, proximal small bowel (PSB), plasma, read-out: Cmax): 5260 ± 1870 ng/mL
tmax ([3]; human, plasma, Trt B, proximal small bowel (PSB), read-out: tmax): 2.1 ± 1.1 h
half-life [3, 7]: 1960 ± 582 min
AUC(0-inf) [3, 7]: 192 ± 33.8 µg·h/mL
AUC(0-t) [3, 7]: 150 ± 37.9 µg·h/mL
Cmax ([3]; human, plasma, Trt C, distal small bowel (DSB), plasma, read-out: Cmax): 4970 ± 1200 ng/mL
tmax ([3]; human, plasma, Trt C, distal small bowel (DSB), read-out: tmax): 3.6 ± 4.2 h
half-life [3, 8]: 1470 ± 371 min
AUC(0-inf) [3, 8]: 193 ± 57 µg·h/mL
AUC(0-t) [3, 8]: 160 ± 38.5 µg·h/mL
AUC(0-inf) [3, 9]: 181 ± 46.1 µg·h/mL
AUC(0-t) [3, 9]: 140 ± 40.7 µg·h/mL
Cmax ([3]; human, plasma, other: Enterion capsule, delivered to the colon, Trt D, colon, plasma, read-out: Cmax): 3880 ± 1270 ng/mL
tmax ([3]; human, plasma, other: Enterion capsule, delivered to the colon, Trt D, colon, read-out: tmax): 11.8 ± 7.4 h
half-life ([3]; human, plasma, other: Enterion capsule, delivered to the colon, Trt D, colon): 1500 ± 312 min
